Assay results published in patent US20190196073A1, “COMPOSITION, FILM, NEAR INFRARED CUT FILTER, PATTERN FORMING METHOD, LAMINATE, SOLID IMAGE PICKUP ELEMENT, IMAGE DISPLAY DEVICE, CAMERA MODULE, AND INFRARED SENSOR” (FUJIFILM Corporation, priority 2016, published 2019).
Converted amounts (≈) assume the structure as drawn.

Columns and labels:
[1] = Measurement of absorption maximum of near infrared absorbing compound in solution; assay type: physicochemical
Excerpt: In addition, in the present invention, a case where the near infrared absorbing compound “has an absorption maximum in a wavelength range of 650 to 1000 nm” represents the near infrared absorbing compound has a maximum absorbance in a wavelength range of 650 to 1000 nm in an absorption spectrum of the near infrared absorbing compound in a solution. A measurement solvent used for measuring an absorption spectrum of the near infrared absorbing compound in the solution is not particularly limited as long as the near infrared absorbing compound is soluble therein. From the viewpoint of solubility, for example, chloroform, dimethylformamide, tetrahydrofuran, or methylene chloride can be used. For example, in the case of a compound which is soluble in chloroform, chloroform is used as the measurement solvent. In the case of a compound which is not soluble in chloroform, methylene chloride is used. In addition, in the case of a compound which is not soluble in chloroform and methylene chloride, dimethylformamide is used. In addition, in the case of a compound which is not soluble in chloroform, methylene chloride, and dimethylformamide, tetrahydrofuran is used.
<Measurement of Absorption Maximum of Near Infrared Absorbing Compound>
A near infrared absorbing compound shown in the following tables was dissolved in a measurement solvent shown in the following tables to prepare a sample solution. Using a spectrophotometer U-4100 (manufactured by Hitachi High-Technologies Corporation), an absorbance of the sample solution in a wavelength range of 300 to 1300 nm was measured to obtain an absorption maximum.

physchem = settings: 25 °C, organic solvent or mixture, thermodynamic from solid
Protocol: (§1) Under the atmospheric pressure, about 100 mg (a precisely weighed value is represented by X mg) of the near infrared absorbing compound is added to 1 L of propylene glycol methyl ether acetate at 25° C., and the components are stirred for 30 minutes. Next, the solution is left to stand for 5 minutes and then is filtered, and the filtrate is dried under reduced pressure at 80° C. for 2 hours is precisely weighed (a precisely weighed value is represented by Y mg). The solubility of the near infrared absorbing compound dissolved in propylene glycol methyl ether acetate is calculated from the following expression.

[2] = Measurement of solubility of near infrared absorbing compound in propylene glycol methyl ether acetate; settings: for solubility at 30 min: propylene glycol methyl ether acetate, 25 °C, organic solvent or mixture, thermodynamic from solid
Protocol: as §1

## O=C1C2=C(c3cnc4ccccc4n3)N(B(c3ccccc3)c3ccccc3)C(=O)C2=C(c2cnc3ccccc3n2)N1B(c1ccccc1)c1ccccc1 [Example A-21]
[1]; measurement solvent Chloroform
  Absorption Maximum: 710 nm
physchem
  solubility at 30 min: 5.47 µg/mL (≈ 7.59 µM)

## CCN1/C(=C/C2=C([O-])C(=C/c3sc4c5ccccc5ccc4[n+]3CC)/C2=O)Sc2c1ccc1ccccc21 [Example A-32]
[1]; measurement solvent Chloroform
  Absorption Maximum: 705 nm
physchem
  solubility at 30 min: 0.42 µg/mL (≈ 0.788 µM)

## CCNC(=O)NC1=CC(=[N+](CC)CC)C=C/C1=C1/C(=O)C(c2ccc(N(CC)CC)cc2NC(=O)NCC)=C1[O-] [Example A-25]
[1]; measurement solvent Chloroform
  Absorption Maximum: 680 nm
physchem
  solubility at 30 min: 2.51 µg/mL (≈ 4.57 µM)

## CCN1/C(=C/C2=C([O-])C(=C\c3sc4ccccc4[n+]3CC)/C(=O)C2=O)Sc2ccccc21 [Example A-43]
[1]; measurement solvent Chloroform
  Absorption Maximum: 848 nm
physchem
  solubility at 30 min: 2.22 µg/mL (≈ 4.82 µM)

## CCCCCCCC(CCCCCCC)N1C(=O)c2ccc3c4ccc5c6ccc7c8ccc9c%10c(ccc(c%11ccc(c%12ccc(c%13ccc(c2c3%13)C1=O)c4c5%12)c6c7%11)c%108)C(=O)N(C(CCCCCCC)CCCCCCC)C9=O [AR-4, reference compound]
[1]; measurement solvent Chloroform
  Absorption Maximum: 765 nm
[2]
  solubility at 30 min: 32.1 µg/mL (≈ 30.3 µM)

## CC1(C)c2ccccc2N(c2cc(O)c(C3=C([O-])C(=C4C(O)=CC(=[N+]5c6ccccc6C(C)(C)c6ccccc65)C=C4O)C3=O)c(O)c2)c2ccccc21 [Example A-37]
[1]; measurement solvent Chloroform
  Absorption Maximum: 675 nm
physchem
  solubility at 30 min: 0.65 µg/mL (≈ 0.912 µM)

## CC1N(C)c2cc(NC(=O)c3ccc4c(c3)C(=O)N(C)C4=O)c(C3=C([O-])/C(=c4\cc5c(cc4NC(=O)c4ccc6c(c4)C(=O)N(C)C6=O)=[N+](C)C(C)C5(C)C)C3=O)cc2C1(C)C (stereo not drawn) [Example A-24]
[1]; measurement solvent Chloroform
  Absorption Maximum: 711 nm
physchem
  solubility at 30 min: 7.88 µg/mL (≈ 9.46 µM)

## C/C(C1=C(O)/C(=C(/C)C2=Nc3ccccc3C2CCN)C1=O)=C1/Nc2ccccc2C1CCN (stereo not drawn) [Example A-28]
[1]; measurement solvent Chloroform
  Absorption Maximum: 737 nm
physchem
  solubility at 30 min: 1.92 µg/mL (≈ 4.22 µM)

## CC1C(/C=C2/C(=O)C(/C=C3/C(C)c4cc(C(N)=O)ccc4N3C)=C2[O-])=[N+](C)c2ccc(C(N)=O)cc21 (stereo not drawn) [Example A-26]
[1]; measurement solvent Chloroform
  Absorption Maximum: 665 nm
physchem
  solubility at 30 min: 11.2 µg/mL (≈ 23.2 µM)

## NC(=O)C1N=c2/c(=C3/C(=O)C(c4ccc5cccc6c5c4NC(C(N)=O)N6)=C3O)ccc3cccc(c23)N1 (stereo not drawn) [Example A-29]
[1]; measurement solvent Chloroform
  Absorption Maximum: 810 nm
physchem
  solubility at 30 min: 0.57 µg/mL (≈ 1.13 µM)

## O=C1C(c2ccc(N3CCCCC3)cc2NC(=O)C(F)(F)F)=C([O-])/C1=C1\C=CC(=[N+]2CCCCC2)C=C1NC(=O)C(F)(F)F [Example A-39]
[1]; measurement solvent Chloroform
  Absorption Maximum: 698 nm
physchem
  solubility at 30 min: 2.68 µg/mL (≈ 4.3 µM)

## NC(=O)c1cccc(N2C(=O)NC(=O)/C(=C/C=C(/C=C/c3c([O-])[nH]c(=O)n(-c4cccc(C(N)=O)c4)c3=O)c3ccccc3)C2=O)c1.[K+] [Example A-4]
[1]; measurement solvent Dimethylformamide
  Absorption Maximum: 740 nm
[2]
  solubility at 30 min: 5.82 µg/mL

## CC1N(C)c2cc(NC(=O)CSC(=N)N)c(C3=C([O-])/C(=c4\cc5c(cc4NC(=O)CSC(=N)N)=[N+](C)C(C)C5(C)C)C3=O)cc2C1(C)C (stereo not drawn) [Example A-23]
[1]; measurement solvent Chloroform
  Absorption Maximum: 708 nm
physchem
  solubility at 30 min: 5.62 µg/mL (≈ 8.13 µM)

## CC1=CC(=[N+](c2ccccc2)c2ccccc2)S/C1=C1/C(=O)C(c2sc(N(c3ccccc3)c3ccccc3)cc2C)=C1[O-] [Example A-40]
[1]; measurement solvent Chloroform
  Absorption Maximum: 706 nm
physchem
  solubility at 30 min: 11.2 µg/mL (≈ 18.4 µM)

## CC(=O)NC1CCC2(CC1)N=c1/c(=C3/C(=O)C(c4ccc5cccc6c5c4NC4(CCC(NC(C)=O)CC4)N6)=C3O)ccc3cccc(c13)N2 (stereo not drawn) [Example A-27]
[1]; measurement solvent Chloroform
  Absorption Maximum: 810 nm
physchem
  solubility at 30 min: 6.74 µg/mL (≈ 10.1 µM)

## CCOC(=O)NC1=CC(=[N+](CC)CC)C=C/C1=C1/C(=O)C(c2ccc(N(CC)CC)cc2NC(=O)OCC)=C1[O-] [Example A-34]
[1]; measurement solvent Chloroform
  Absorption Maximum: 680 nm
physchem
  solubility at 30 min: 7.72 µg/mL (≈ 14 µM)

## O=C1c2ccc3c4ccc5c6ccc7c8ccc9c%10c(ccc(c%11ccc(c%12ccc(c%13ccc(c2c3%13)C(=O)N1c1ccccc1)c4c5%12)c6c7%11)c%108)C(=O)N(c1ccccc1)C9=O [Example A-2]
[1]; measurement solvent Methylene Chloride
  Absorption Maximum: 765 nm
[2]
  solubility at 30 min: 0.64 µg/mL (≈ 0.809 µM)

## O=C1C(=C2C(O)=CC(=[N+]3c4ccccc4-c4ccccc43)C=C2O)C([O-])=C1c1c(O)cc(-n2c3ccccc3c3ccccc32)cc1O [Example A-38]
[1]; measurement solvent Chloroform
  Absorption Maximum: 750 nm
physchem
  solubility at 30 min: 0.88 µg/mL (≈ 1.4 µM)

## c1ccc2cc3c(cc2c1)C1=NC3=Nc2c3cc4ccccc4cc3c3[n]2[Cu][n]2c(c4cc5ccccc5cc4c2=NC2=NC(=N3)c3cc4ccccc4cc32)=N1 [Example A-3]
[1]; measurement solvent Chloroform
  Absorption Maximum: 775 nm
[2]; in propylene glycol methyl ether acetate at 25° C., about 100 mg added to 1 L
  Solubility: 0.33 µg/mL

## CCN(CC)c1cc2[nH]c(=O)c3ccc(cc3)c(=O)[nH]c3cc(=[N+](CC)CC)c(C)cc3c3c([O-])c(c3=O)c2cc1C [Example A-36]
[1]; measurement solvent Chloroform
  Absorption Maximum: 715 nm
physchem
  solubility at 30 min: 4.29 µg/mL (≈ 7.6 µM)

## O=C1C(c2ccc3cccc4c3c2NB(c2ccc(O)cc2)N4)=C(O)/C1=c1/ccc2cccc3c2c1=NB(c1ccc(O)cc1)N3 [Example A-31]
[1]; measurement solvent Chloroform
  Absorption Maximum: 823 nm
physchem
  solubility at 30 min: 7.69 µg/mL (≈ 12.9 µM)

## CC(=O)NC1=CC(=[N+]2CCCC2)C(C)=C/C1=C1/C(=O)C(c2cc(C)c(N3CCCC3)cc2NC(C)=O)=C1[O-] [Example A-35]
[1]; measurement solvent Chloroform
  Absorption Maximum: 700 nm
physchem
  solubility at 30 min: 5.11 µg/mL (≈ 9.93 µM)

## CNC(=O)Nc1cc(N2CCCC2)c(C)cc1C1=C([O-])/C(=c2\cc3c4c(c2NC(=O)NC)CCC[N+]=4CCC3)C1=O [Example A-41]
[1]; measurement solvent Chloroform
  Absorption Maximum: 710 nm
physchem
  solubility at 30 min: 0.94 µg/mL (≈ 1.69 µM)

## 4,5-octakis(phenylthio)-3,6-{tetrakis(2,6-dimethylphenoxy)-tetrakis(n-hexyamino)}copper phthalocyanine [AR-1, reference compound]
[1]; measurement solvent Chloroform
  Absorption Maximum: 780 nm

## O=C1C(c2ccc(N(c3ccccc3)c3ccccc3)cc2NS(=O)(=O)C(F)(F)F)=C(O)/C1=C1/C=CC(N(c2ccccc2)c2ccccc2)=C/C1=N\S(=O)(=O)C(F)(F)F [Example A-30]
[1]; measurement solvent Chloroform
  Absorption Maximum: 737 nm
physchem
  solubility at 30 min: 3.58 µg/mL (≈ 4.15 µM)

## CCOc1ccc(OCC)c2c1C1=NC/2=N\c2c3c(OCC)ccc(OCC)c3c3[n]2[Zn][n]2/c(c4c(OCC)ccc(OCC)c4/c2=N/C2=NC(=N\3)/c3c(OCC)ccc(OCC)c32)=N\1 [Example A-6]
[1]; measurement solvent Chloroform
  Absorption Maximum: 744 nm
[2]
  solubility at 30 min: 15.5 µg/mL
